In patent US10080728B2, “Hemostatic agent” (priority 2015, dated 2018):

Experiments:
eyeball pain = test: Eyeball pain in posttraumatic processes, VAS (Example 2.16); type: in vivo, human; conditions: eyeball lesions, instilled into the conjunctival sac
Description: Evaluation of efficiency of the claimed substance for eyeball pain reduction in posttraumatic processes. The claimed substance solution was instilled into the conjunctival sac of patients with various lesions of the eyeball, including after surgery. As a reference, diclofenac eye drops were used. For efficiency evaluation the change in the pain sensation intensity on the visual analog scale (VAS) from 0 to 10 points was used.

[1] = system: corneal sensitivity of the rabbit's eye; test: Topical (corneal) anesthetic activity in rabbit's eye (Example 2.1); type: in vivo, rabbits; conditions: 0.5% aqueous solution into the conjunctival sac of the rabbit's eye
Description: A study to determine anesthetic activity was carried out in unanesthetized rabbits, which were placed in a special box with a hole to restrain the animal's head. The study was conducted to determine the threshold of sensitivity of the rabbit's eye to a tactile impact. For this purpose, a thin metal wire was used without injuring the cornea. The examined compound and the reference drug (oxybuprocaine) were administered into the conjunctival sac of the rabbit's eye in the form of a 0.5% aqueous solution with the total volume of up to 0.4 ml. Determination of topical anaesthesia was performed starting from the 1st minute of the study. The absence of the blinking reflex for 1 min (100 touches) was considered as an indicator of full anesthesia. Based on the collected data reflecting the changes in corneal sensitivity under the influence of the drugs, the beginning, the duration of complete (100%) anesthesia and the total duration of anesthesia were determined.
The relative activity of the tested compounds was calculated according to the Valet equation. The Rainier index is 852.4 for the claimed preparation and 63.5 for the reference preparation. The duration of anesthesia was 234 minutes for the claimed preparation and 24 min for oxibuprocaine.

postoperative pain = test: Postoperative pain syndrome after laparoscopic cholecystectomy, VAS (Example 2.8); type: in vivo, human
Description: Evaluation of efficiency of the claimed substance for pain reduction was studied in patients suffering the postoperative pain syndrome. After laparoscopic cholecystectomy the claimed substance was applied onto the affected areas of the patients in the form of a solution/spray in a concentration of 0.01% to 10%. As a comparison preparation for surface anesthesia oxybuprocaine was used. To evaluate efficiency the change in the pain sensation intensity on the visual analog scale (VAS) in 1 minute after application/administration of the preparation and after 2 days in case of everyday application was used.

[2] = system: bleeding from liver wounds; test: Hemostatic activity together with aluminum sulfate gel or silver nitrate solution (Example 1.6); type: in vivo, rabbits
Description: The influence of the claimed substance on the hemostatic function was examined in rabbits of both sexes weighing 2000-4000 g. The experiments were carried out under general anesthesia. The animals underwent a laparotomy with a section made along the white line of the abdomen. The intestine was exteriorized into the wound and limited by wipes moistened with 0.9% sodium chloride solution (temperature […]), as well as the front surface of the liver. A superficial wound of the liver by the area of 1.5 cm^2 and the depth of 0.1 cm was inflicted by means of a razor. […] An animal model was used in the experiment, as described in Example No. 4. Hemostatic activity was evaluated by the change of the bleeding intensity.

[3] = system: capillary-parenchymal bleeding from liver wounds; test: Hemostatic activity of solution or spray on superficial liver wound (Example 1.1); type: in vivo, rabbits
Description: The influence of the claimed substance on the hemostatic function was examined in rabbits of both sexes weighing 2000-4000 g. The experiments were carried out under general anesthesia. The animals underwent a laparotomy with a section made along the white line of the abdomen. The intestine was exteriorized into the wound and limited by wipes moistened with 0.9% sodium chloride solution (temperature […]), as well as the front surface of the liver. A superficial wound of the liver by the area of 1.5 cm^2 and the depth of 0.1 cm was inflicted by means of a razor.
Arrest of the capillary-parenchymal bleeding was carried out by uniform application of a 1% solution or a spray of the claimed substance on the entire area of the wound surface. At that, iron subsulfat was used for comparison of the bleeding arrest time. Hemostatic activity was evaluated by the change of the bleeding intensity.

pain with soft corn = test: Anesthetic activity, pain with soft corn, VAS (second Example 1.8); type: in vivo; conditions: soft corns
Description: Evaluation of the claimed substance's anesthetic activity was studied when dispersing a spray containing 0.01-10% of the preparation, or when applied at a concentration of 0.01% to 10% onto a bandaging material or a plaster for application onto the wound surface. An iron subsulfate solution was used as a reference. For efficiency evaluation the change in the pain sensation intensity on the visual analog scale (VAS) from 0 to 10 points in 1 minute after application of the product and after 2 days in everyday use was used.

[4] = system: itch at genital candidiasis; test: Itch reduction at genital candidiasis, ISS (Example 2.3); type: in vivo; conditions: rounded to the higher value
Description: Evaluation of the claimed substance's anesthetic activity to reduce itch at genital candidiasis was studied when applied onto mucosae in the form of a 0.01% to 10% solution or by administering vaginal suppositories containing the claimed substance. To evaluate the efficiency the change in the itch sensation intensity on the Itch Severity Score (ISS) in 1 minute after application/administration of the product and after 5 days in case of everyday administration was used.

[5] = system: chest pain and bloody sputum; test: Inhalation in chronic obstructive pulmonary disease: chest pain VAS and blood in sputum (Example 2.13); type: in vivo, human; conditions: for Pain sensation intensity on a visual analog scale: chronic obstructive pulmonary disease, inhalation by nebulizer
[6] = system: bleeding and pain after medical interventions; test: Bleeding and pain in ENT, upper respiratory and digestive systems interventions (Example 2.17); type: in vivo, human
Description: Evaluation of the claimed substance efficiency for reduction of bleeding and pain in ENT, upper respiratory and digestive systems pathologies, in the course of instrumentation studies of these systems. Patients with various medical interventions after treatment with haemostatic purpose and pain reduction were treated with the claimed preparation. An iron subsulfate solution was used as a reference. For efficiency evaluation the change in the pain sensation intensity on the visual analog scale (VAS) from 0 to 10 points was used.

[7] = Nanostructure by dynamic light scattering; type: physicochemical; conditions: preparation concentration 0.05 mg/ml
Description: (§1) The nanostructure is determined by the methods of dynamic light scattering using a Malvern Instruments Nanosizer Nano-ZS particle size analyzer and a FEI Tecnai G212Cryo12 transmission electron microscope enabling tp cool the samples at the boiling point of liquid nitrogen.

[8] = Nanostructure by electron-microscopic examination; type: physicochemical
Description: as §1

[9] = 1 minute after application of the preparation

With `O=C(O)Cc1ccccc1Nc1c(Cl)cccc1Cl` [Diclofenac solution, Diclofenac] the “Pain sensation intensity on a visual analog scale” value (eyeball pain; before treatment) was 6.9 +/− 0.8 points, the “Pain sensation intensity on a visual analog scale” value (eyeball pain; in 1 minute) was 7.1 +/− 0.5 points and the “Pain sensation intensity on a visual analog scale” value (eyeball pain; in 10 minute) was 7.2 +/− 0.6 points.
For `CCCCOc1cc(C(=O)OCCN(CC)CC)ccc1N` [Oxybuprocaine, oxybuprocaine], the “Rainier index (relative activity, Valet equation)” value [1] was 63.5, the duration of anesthesia [1] was 24 min and the “Pain sensation intensity on a visual analog scale” value (postoperative pain; [9]) was 2.2 +/− 0.4. The “Pain sensation intensity on a visual analog scale” value (postoperative pain; before treatment) was 7.6 +/− 0.8 and the “Pain sensation intensity on a visual analog scale” value (postoperative pain; in 2 days (daily administration)) was 0.5 +/− 0.1.
With `O=[N+]([O-])[O-].[Ag+]` [Silver nitrate solution (1:200), Silver nitrate] the “Relative intensity of bleeding” value ([2]; 120 seconds after application) was 1035.7 ± 119.0 mg/min and the “Relative intensity of bleeding” value ([2]; before application) was 1437.5 ± 141.6 mg/min.
For Ferric Subsulfate [iron subsulphate], the “Relative intensity of bleeding from liver wounds” value ([3]; 180 seconds after application) was 652.6 ± 108.2 mg/min, the “Relative intensity of bleeding from liver wounds” value ([3]; before application) was 1326.4 ± 128.5 mg/min and the “Pain sensation intensity on a visual analog scale” value (pain with soft corn; before treatment) was 4.2 +/− 0.2 points. For the same compound, the “Pain sensation intensity on a visual analog scale” value (pain with soft corn; in 1 minute) was 4.5 +/− 0.4 points, the “Pain sensation intensity on a visual analog scale” value (pain with soft corn; in 2 days, everyday use) was 3.9 +/− 0.3 points and the “Itch intensity on the Itch Severity Score (ISS) scale” value [4, 9] was 4 points. The “Itch intensity on the Itch Severity Score (ISS) scale” value ([4]; in 5 days (for daily administration)) was 5 points, the “Pain sensation intensity on a visual analog scale” value ([5]; before treatment) was 4.2 +/− 0.7 and the “Pain sensation intensity on a visual analog scale” value ([5]; in 1 minute) was 4.4 +/− 0.7. For the same compound, the “Pain sensation intensity on a visual analog scale” value ([5]; in 5 days) was 4.2 +/− 0.7, the “Presence of bloody sputum” value ([5]; in 1 minute) was “+++” and the “Pain sensation intensity on a visual analog scale” value ([6]; before treatment) was 4.7 +/− 0.5 points. For the same compound, the “Pain sensation intensity on a visual analog scale” value ([6]; in 1 minute) was 4.5 +/− 0.4 points and the “Pain sensation intensity on a visual analog scale” value ([6]; in 10 minute) was 4.6 +/− 0.5 points.
With “polyammonia methanediamine chloride [the claimed preparation]” the “Rainier index (relative activity, Valet equation)” value [1] was 852.4, the duration of anesthesia [1] was 234 min and the “size of globules in solution” value [7] was 10-15 nm. The size of globules [8] was 10-15 nm.
